Test results taken from the NIST ThermoML archive (doi:10.1016/j.fluid.2006.12.012).

Experiments:
[1] = 298.15 K; 101.33 kPa; Liquid; Pycnometric method
[2] = refractive index (Na D-line) (dimensionless); conditions: 298.15 K; 101.33 kPa; Liquid; Standard Abbe refractometry
[3] = excess molar enthalpy (molar enthalpy of mixing); xn = mol fraction of the nth substance listed; conditions: 298.15 K, 101 kPa, Liquid
[4] = xn = mol fraction of the nth substance listed; conditions: 303.15 K, 101 kPa, Liquid, Direct dilatometry

CC(C)CO [2-methyl-1-propanol]
Conditions | mass density [kg/m3] | refractive index
[1] | 794.34 | –
[2] | – | 1.3939

CC(C)CO [2-methyl-1-propanol] + CN1CCCC1=O
Conditions | excess molar enthalpy [kcal/mol] | excess molar volume [m3/mol]
[3], x2 = 0.051 | 0.0366 | –
[3], x2 = 0.1288 | 0.0654 | –
[3], x2 = 0.2035 | 0.085 | –
[3], x2 = 0.2736 | 0.0939 | –
[3], x2 = 0.3385 | 0.0957 | –
[3], x2 = 0.3939 | 0.0938 | –
[3], x2 = 0.4477 | 0.0902 | –
[3], x2 = 0.4974 | 0.0863 | –
[3], x2 = 0.543 | 0.0817 | –
[3], x2 = 0.6198 | 0.0645 | –
[3], x2 = 0.6816 | 0.0585 | –
[3], x2 = 0.748 | 0.0524 | –
[3], x2 = 0.8179 | 0.0474 | –
[3], x2 = 0.8911 | 0.0354 | –
[3], x2 = 0.9686 | 0.0224 | –
[4], x2 = 0.1356 | – | -9.8e-08
[4], x2 = 0.2201 | – | -1.47e-07
[4], x2 = 0.2921 | – | -1.74e-07
[4], x2 = 0.4102 | – | -2.06e-07
[4], x2 = 0.5144 | – | -2.26e-07
[4], x2 = 0.5994 | – | -2.32e-07
[4], x2 = 0.6915 | – | -2.21e-07
[4], x2 = 0.8044 | – | -1.86e-07
[4], x2 = 0.9237 | – | -9.6e-08

CC(C)(C)O [2-methylpropan-2-ol]
Conditions | mass density [kg/m3] | refractive index
[1] | 776.16 | –
[2] | – | 1.3851

CC(C)(C)O [2-methylpropan-2-ol] + CN1CCCC1=O
Conditions | excess molar enthalpy [kcal/mol] | excess molar volume [m3/mol]
[3], x2 = 0.0634 | 0.0223 | –
[3], x2 = 0.1313 | 0.0597 | –
[3], x2 = 0.2034 | 0.094 | –
[3], x2 = 0.2666 | 0.117 | –
[3], x2 = 0.3319 | 0.135 | –
[3], x2 = 0.3942 | 0.145 | –
[3], x2 = 0.4382 | 0.142 | –
[3], x2 = 0.4828 | 0.14 | –
[3], x2 = 0.5381 | 0.137 | –
[3], x2 = 0.6026 | 0.128 | –
[3], x2 = 0.6733 | 0.112 | –
[3], x2 = 0.7442 | 0.0971 | –
[3], x2 = 0.829 | 0.0662 | –
[3], x2 = 0.9194 | 0.0342 | –
[4], x2 = 0.1121 | – | -3.2e-08
[4], x2 = 0.2423 | – | -8.4e-08
[4], x2 = 0.3215 | – | -1.16e-07
[4], x2 = 0.4128 | – | -1.36e-07
[4], x2 = 0.4601 | – | -1.52e-07
[4], x2 = 0.5403 | – | -1.48e-07
[4], x2 = 0.6359 | – | -1.42e-07
[4], x2 = 0.7246 | – | -1.18e-07
[4], x2 = 0.8032 | – | -9e-08
[4], x2 = 0.8404 | – | -6.4e-08
[4], x2 = 0.9238 | – | -2.6e-08

CC(C)CCO [3-methylbutan-1-ol]
Conditions | mass density [kg/m3] | refractive index
[1] | 801.76 | –
[2] | – | 1.4053

CC(C)CCO [3-methylbutan-1-ol] + CN1CCCC1=O
Conditions | excess molar enthalpy [kcal/mol] | excess molar volume [m3/mol]
[3], x2 = 0.0777 | 0.0394 | –
[3], x2 = 0.149 | 0.0727 | –
[3], x2 = 0.2286 | 0.101 | –
[3], x2 = 0.3011 | 0.112 | –
[3], x2 = 0.3692 | 0.12 | –
[3], x2 = 0.4301 | 0.119 | –
[3], x2 = 0.4847 | 0.116 | –
[3], x2 = 0.5348 | 0.113 | –
[3], x2 = 0.5484 | 0.114 | –
[3], x2 = 0.5792 | 0.108 | –
[3], x2 = 0.6031 | 0.103 | –
[3], x2 = 0.6712 | 0.0904 | –
[3], x2 = 0.744 | 0.0778 | –
[3], x2 = 0.8153 | 0.0615 | –
[3], x2 = 0.8821 | 0.0416 | –
[3], x2 = 0.9444 | 0.0212 | –
[4], x2 = 0.0999 | – | -7.8e-08
[4], x2 = 0.2737 | – | -1.69e-07
[4], x2 = 0.3718 | – | -1.97e-07
[4], x2 = 0.4155 | – | -2.09e-07
[4], x2 = 0.5254 | – | -2.01e-07
[4], x2 = 0.6399 | – | -1.76e-07
[4], x2 = 0.7034 | – | -1.49e-07
[4], x2 = 0.8699 | – | -7.3e-08
[4], x2 = 0.9384 | – | -3.6e-08

CN1CCCC1=O [N-methylpyrrolidone]
Conditions | mass density [kg/m3] | refractive index
[1] | 1023.4 | –
[2] | – | 1.4674

CN1CCCC1=O [N-methylpyrrolidone] + CC(C)O
Conditions | excess molar enthalpy [kcal/mol] | excess molar volume [m3/mol]
[3], x1 = 0.0516 | 0.0709 | –
[3], x1 = 0.1082 | 0.137 | –
[3], x1 = 0.1702 | 0.19 | –
[3], x1 = 0.2279 | 0.223 | –
[3], x1 = 0.2894 | 0.24 | –
[3], x1 = 0.3471 | 0.248 | –
[3], x1 = 0.4059 | 0.246 | –
[3], x1 = 0.4562 | 0.238 | –
[3], x1 = 0.595 | 0.174 | –
[3], x1 = 0.6888 | 0.147 | –
[3], x1 = 0.7874 | 0.113 | –
[3], x1 = 0.892 | 0.0648 | –
[4], x1 = 0.1498 | – | -5.2e-08
[4], x1 = 0.2066 | – | -7.8e-08
[4], x1 = 0.3202 | – | -1.29e-07
[4], x1 = 0.4317 | – | -1.57e-07
[4], x1 = 0.5027 | – | -1.62e-07
[4], x1 = 0.5854 | – | -1.66e-07
[4], x1 = 0.7216 | – | -1.42e-07
[4], x1 = 0.8148 | – | -1.06e-07
[4], x1 = 0.9062 | – | -5.8e-08

CN1CCCC1=O [N-methylpyrrolidone] + CCC(C)O
Conditions | excess molar enthalpy [kcal/mol] | excess molar volume [m3/mol]
[3], x1 = 0.0691 | 0.0413 | –
[3], x1 = 0.1595 | 0.0937 | –
[3], x1 = 0.2388 | 0.123 | –
[3], x1 = 0.3106 | 0.134 | –
[3], x1 = 0.3733 | 0.14 | –
[3], x1 = 0.4822 | 0.136 | –
[3], x1 = 0.5305 | 0.131 | –
[3], x1 = 0.5614 | 0.124 | –
[3], x1 = 0.6341 | 0.109 | –
[3], x1 = 0.7217 | 0.0872 | –
[3], x1 = 0.8176 | 0.0598 | –
[3], x1 = 0.9067 | 0.0327 | –
[4], x1 = 0.1046 | – | -6.5e-08
[4], x1 = 0.1831 | – | -1.26e-07
[4], x1 = 0.249 | – | -1.62e-07
[4], x1 = 0.3096 | – | -1.93e-07
[4], x1 = 0.3777 | – | -2.19e-07
[4], x1 = 0.4817 | – | -2.38e-07
[4], x1 = 0.5739 | – | -2.3e-07
[4], x1 = 0.6355 | – | -2.16e-07
[4], x1 = 0.7494 | – | -1.64e-07
[4], x1 = 0.8086 | – | -1.36e-07
[4], x1 = 0.9142 | – | -6.4e-08

CCC(C)O (stereo not given) [butan-2-ol]
Conditions | mass density [kg/m3] | refractive index
[1] | 798.92 | –
[2] | – | 1.3954

CC(C)O [propan-2-ol]
Conditions | mass density [kg/m3] | refractive index
[1] | 776.88 | –
[2] | – | 1.375
